Values belong to the compound of their own block, whether it stands above or below them.
Columns and labels:
[1] = system: human pulmonary artery smooth muscle cells (hPASMC); assay: Measurements of cGMP in human pulmonary artery smooth muscle cells (hPASMC); format: cell-based; details: incubation 15 or 30 min; compared with sildenafil
Description: Human Pulmonary Artery Smooth Muscle Cells (hPASMC) were purchased from Clonetics™ Lonza (Lonza, reference number CC-2581) and cultured in Clonetics' smooth muscle growth medium (Clonetics™ SmGM™-2 with BulletKit™ growth factor supplements (Lonza, reference number CC-3182) at 37° C. in 5% CO2. Culture medium was replaced each 48 hours. Cells were grown in 75 cm^2 culture plates.
48 h before the experiments, cells were trypsinized (Trypsin kit One ReagentPack™ (CC-5034), Lonza) and plated in 96 well plates precoated with collagen I at 10000 cells per well. 24 h before the experiments culture medium was replaced by serum-reduced (0.5% FBS) medium.
Measurements of intracellular cGMP were performed using the Amersham cGMP EIA System (GE Healthcare, RPN226) following the instructions of the manufacturer. The assay has a sensitivity of 2 fmol cGMP per well. Briefly, incubations were terminated by adding Amersham's lysis buffer 1 and cells left for 10 min under agitation to ensure complete lysis. cGMP in samples was then acetylated using triethylamine and acetic anhydride and determined by a competitive ELISA. The ELISA is based on the competition between acetylated cGMP in cell culture lysates and a peroxidase-labelled cGMP conjugate for limited binding sites on a cGMP specific antiserum immobilized on pre-coated 96 well MTP. cGMP was determined based on a standard curve. […]

[2] = system: phenylephrine-precontracted rat aortic rings; assay: Isometric tension studies: relaxation of phenylephrine-precontracted rat aortic rings; details: for IC40: concentration where 40% relaxation was achieved
Description: After 1 week of acclimatization, rats were anesthetized. Appropriate depth of anesthesia was determined by the absence of the leg flexor response and the eyelid reflex. Then, the thorax was quickly opened by a midline incision, and the rat was sacrificed by cutting the heart and exsanguination.
Indomethacin (1 μM) was added to the saline solution.
Eligible rings were then washed several times to restore tension to the baseline level.
In some experiments, the entire length of the thoracic aorta was functionally denuded of the endothelial layer by gently scraping the luminal surface with a 1.5 mm glass rod. […] Rings were then washed several times to restore tension to the baseline level.
Indomethacin (1 μM) was added to the saline solution. […] Only vessels with at least 60% relaxation to 1 μM ACh from the tension with 300 nM were eligible.
The preparations were allowed to equilibrate for 60 min in Krebs with high glucose (25 mM) before contraction to a new single concentration of PE (300 nM).
Finally, sodium nitroprusside (0.1 mM) was added, in order to obtain maximum relaxation of arterial rings.
The amount of relaxation (percent values as means±SEM) was quantified as percent relaxation from the tension (plateau) achieved with phenylephrine.
Data are presented as mean±SEM. Statistical analysis of results has been performed by analysis of variance (ANOVA) either parametric or non-parametric (Kruskal-Wallis), followed by Bonferroni test or Dunn tests as appropriate (GraphPad Software Inc, San Diego, Calif., USA). Significance was accepted when P<0.05. Non-linear regression was conducted with GraphPad Software).

[3] = Rattus norvegicus, High Glucose (25 mM)
[4] = Rattus norvegicus, Intact Endothelium (E+)
[5] = Rattus norvegicus, L-NAME (100 μM)
[6] = Rattus norvegicus, Without Endothelium

EC50 ([2]; High Glucose (25 mM)): 2.79 nM
EC50 ([2]; Intact Endothelium (E+)): 0.0074 nM
EC50 ([2]; L-NAME (100 μM)): 0.935 nM
EC50 ([2]; Without Endothelium): 5.94 nM
SMILES: CCCOc1ccc(S(=O)(=O)N2CCC(CCO)CC2)cc1-c1nn2c(CCC)c(/C=N/O)c(C)c2c(=O)[nH]1 [Compound 1r, (E)-2-(5-((4-(2-hydroxyethyl)piperidin-1-yl)sulfonyl)-2-propoxyphenyl)-5-methyl-4-oxo-7-propyl-3,4-dihydropyrrolo[2,1-f][1,2,4]triazine-6-carbaldehyde oxime]
cGMP formation in hPASMC, activity in words [1]: significantly higher activity as compared to the reference inhibitor sildenafil
Emax ([2]; High Glucose (25 mM)): 51%
IC40 ([2]; High Glucose (25 mM)): 89.295 nM
Emax ([2]; Intact Endothelium (E+)): 91.9%
IC40 ([2]; Intact Endothelium (E+)): 0.0038 nM
Emax ([2]; L-NAME (100 μM)): 60.4%
IC40 ([2]; L-NAME (100 μM)): 2.982 nM
Emax ([2]; Without Endothelium): 39.8%
IC40 ([2]; Without Endothelium): >1000 nM
relaxation of rat aortic rings, result in words ([2]; intact endothelium (FIG. 2A)): more potent and effective than Sildenafil

SMILES: CCCOc1ccc(S(=O)(=O)N2CCC(CCO[N+](=O)[O-])CC2)cc1-c1nn2c(CCC)c(/C=N/O)c(C)c2c(=O)[nH]1 [Compound 1v, (E)-2-(1-((3-(6-((hydroxyimino)methyl)-5-methyl-4-oxo-7-propyl-3,4-dihydropyrrolo[2,1-f][1,2,4]triazin-2-yl)-4-propoxyphenyl)sulfonyl)piperidin-4-yl)ethyl nitrate]
cGMP formation in hPASMC, activity in words [1]: significantly higher activity as compared to the reference inhibitor sildenafil
IC40 ([2]; High Glucose (25 mM)): 0.66 nM
IC40 ([2]; Intact Endothelium (E+)): 0.0082 nM
IC40 ([2]; L-NAME (100 μM)): 1.412 nM
EC50 [2, 3]: 0.181 nM
Emax [2, 3]: 64.2%
EC50 [2, 4]: 0.0111 nM
Emax [2, 4]: 85.1%
EC50 [2, 5]: 0.267 nM
Emax [2, 5]: 62%
EC50 [2, 6]: 0.218 nM
Emax [2, 6]: 48.7%
lower concentration for 40% relaxation related to sildenafil ([2]; Without Endothelium): > 130 fold
IC40 ([2]; Without Endothelium): 7.527 nM
more potent relaxation as compared to sildenafil (based on EC50) ([2]; absence of endothelium): about 95 fold
more potent relaxation as compared to sildenafil (based on EC50) ([2]; intact endothelium): about 17 fold
relaxation of rat aortic rings, result in words ([2]; intact endothelium (FIG. 2A)): more potent and effective than Sildenafil
more potent relaxation as compared to sildenafil (based on EC50) ([2]; intact endothelium, pre-exposed to high (25 mM) glucose for 60 min): about 110 fold
relaxation of rat aortic rings, result in words ([2]; pre-exposed to high glucose (25 mM) (FIG. 2B)): clearly more potent and efficacious than 1r
more potent relaxation as compared to sildenafil (based on EC50) ([2]; presence of L-NAME): about 22 fold
lower concentration for 40% relaxation related to sildenafil ([2]; with L-NAME): ~68 fold
lower concentration for 40% relaxation related to sildenafil ([2]; with high glucose): ~1250 fold
lower concentration for 40% relaxation related to sildenafil ([2]; with intact endothelium): about 24 fold
